# Earlier results as cited in patent US6808938B2, “Method and apparatus for assaying a drug candidate to estimate a pharmacokinetic parameter associated therewith” (Biacore AB, priority 1999, dated 2004).
# Conditions: stated to explain lack of correlation at 500 μM in FIG. 7
compound,measurement,value
CN1C(C(=O)Nc2ccccn2)=C(O)c2ccccc2S1(=O)=O [Piroxicam],Solubility,< 500 µM
